From publication PMC5118688 (Scientific Reports, 2016)
Values after ≈ are worked out from the molar mass of the structure shown. Where two headings read alike, the source gives them in different places.

Experiments:
mAb3C9 [1] = assay: mimotope-based dcELISA (mAb3C9 and M20-GST-BAD/SA-HRP competitor); format: binding, mouse; conditions: for CR (%): M20-GST-BAD, (IC50 of parathion-methyl/IC50 of pesticide) × 100
Procedure: To develop a mimotope-based dcELISA, the biotinylated mimotope fusion protein was firstly assembled with streptavidin-HRP conjugate (SA-HRP) utilized the high affinity of biotin and streptavidin. The assembly process was just mixing a certain amount of biotinylated mimotope fusion protein with SA-HRP and incubating them at 4 °C overnight before use as an HRP-labeled competitor.
An innovative mimotope-based dcELISA was developed and performed as below. […] TMB solution (100 μL/well) was added and incubated for 15 min at 37 °C.
The optimal condition for mimotope-based dcELISA was optimized as chemosynthesized antigen-based dcELISA. The selectivity and sensitivity of the developed mimotope-based dcELISA for the 24 OPs were also determined under the optimum condition.

mAb4D11 = assay: optimized mAb4D11-based dcELISA
Procedure: (§1) The dcELISA procedure was performed as below. First, the plate (Costar, Corning Inc., New York, USA) was coated with coating antigen (100 μL/well in 1 × PBS) for 1 h at 37 °C. Then, the wells were washed four times with PBST (1 × PBS with 0.05% (v/v) Tween-20) and blocked with 2% skim milk (200 μL/well) for 1 h at 37 °C. After washing four times, 50 μL analyte in MeOH-water solution and 50 μL mAb-HRP in PBS were added. The plate was incubated for 1 h at 37 °C and then washed four times before adding TMB solution (100 μL/well). After incubation for 15 min at 37 °C, 50 μL/well of H2SO4 (2 mol/L) was added to stop the reaction, and the absorbance was recorded at 450 nm using the Model 680 plate reader (Bio-Rad, USA).
(§2) 18 kinds of O,O-dimethyl OPs and 6 kinds of O,O-diethyl OPs were purchased from National Standards of China and used for the selectivity and sensitivity study using the optimized dcELISA procedure. […] The IC50 value and detection limit of each OP were calculated. The CR value, which was used to evaluate the selectivity of the method, was calculated using the following equation:

mAb3C9 [2] = assay: optimized chemosynthesized antigen-based dcELISA (mAb3C9 and hapten 6-OVA); conditions: for CR (%): Hapten 6-OVA, (IC50 of parathion-methyl/IC50 of pesticide) × 100
Procedure: as §1, §2

[3] = ref Hua et al. 11; cited from earlier work
[4] = system: mAb against a generic hapten (3-(4-dimethoxyphosphorothioyloxy phenyl)propanoic acid); conditions: ref Liu et al. 10; cited from earlier work
[5] = ref Liang et al. 9; cited from earlier work
[6] = mAb3C9, coating antigen Hapten 6-OVA

SMILES | CR (%) (mAb3C9 [1]) | LOD (IC10) (mAb3C9 [1]; mAb3C9, M20-GST-BAD) | IC50 ± SD (mAb3C9 [1]; mAb3C9, competitor M20-GST-BAD) | CR (%) (mAb4D11; mAb4D11-based dcELISA) | IC50 (mAb4D11; mAb4D11-based dcELISA) | CR (%) (mAb3C9 [2]) | LOD (IC10) (mAb3C9 [2]; mAb3C9, Hapten 6-OVA) | IC50 ± SD (mAb3C9 [2]; [6]) | IC50 [3] | LOD (mAb4D11; mAb4D11-based dcELISA) | IC50 [4] | IC50 ± SD (mAb3C9 [1]) | LOD (IC10) (mAb3C9 [1]) | CR (%) (mAb4D11) | IC50 (mAb4D11) | IC50 ± SD (mAb3C9 [2]) | LOD (IC10) (mAb3C9 [2]) | IC50 [5]
CCOP(=S)(OCC)SCn1nnc2ccccc2c1=O [Azinphos-ethyl] | 4.7% | 0.0264 µg/mL | 0.1074 ± 0.0032 µg/mL (≈ 0.311 µM) | < 0.3% | > 5 µg/mL | 4.9% | 0.0216 µg/mL | 0.0953 ± 0.0042 µg/mL (≈ 0.276 µM) |  |  |  |  |  |  |  |  |  | 
COP(=S)(OC)SCn1nnc2ccccc2c1=O [Azinphos-methyl] | 290.8% | 0.0004 µg/mL | 0.0017 ± 0.0001 µg/mL (≈ 0.00536 µM) | < 0.3% | > 5 µg/mL | 306.6% | 0.0004 µg/mL | 0.0015 ± 0.0001 µg/mL (≈ 0.00473 µM) | > 100 µg/mL |  |  |  |  |  |  |  |  | 
COP(=S)(OC)Oc1cc(Cl)c(Br)cc1Cl [Bromophos-methyl] | 6.2% | 0.0194 µg/mL | 0.0822 ± 0.0024 µg/mL (≈ 0.225 µM) | 11.6% | 0.1246 µg/mL (≈ 0.34 µM) | 6.2% | 0.0195 µg/mL | 0.0755 ± 0.0041 µg/mL (≈ 0.206 µM) |  | 31.4 ng/mL |  |  |  |  |  |  |  | 
COP(=S)(OC)Oc1nc(Cl)c(Cl)cc1Cl [Chlorpyrifos-methyl] | 122.8% | 0.0009 µg/mL | 0.0041 ± 0.0002 µg/mL (≈ 0.0127 µM) | 59.4% | 0.0244 µg/mL (≈ 0.0757 µM) | 120.7% | 0.0007 µg/mL | 0.0039 ± 0.0001 µg/mL (≈ 0.0121 µM) | > 100 µg/mL | 5.7 ng/mL | 0.81 µg/mL (≈ 2.51 µM) |  |  |  |  |  |  | 
COP(=S)(OC)Oc1ccc(C#N)cc1 [Cyanophos] | 146.2% | 0.0007 µg/mL | 0.0035 ± 0.0001 µg/mL (≈ 0.0144 µM) | 82.5% | 0.0176 µg/mL (≈ 0.0724 µM) | 152.8% | 0.0006 µg/mL | 0.0031 ± 0.0002 µg/mL (≈ 0.0127 µM) | 0.0203 µg/mL (≈ 0.0835 µM) | 2.3 ng/mL |  |  |  |  |  |  |  | 
CCOP(=S)(OCC)Oc1cc(C)nc(C(C)C)n1 [Diazinon] | 0.2% | 0.4123 µg/mL | 2.0648 ± 0.0417 µg/mL (≈ 6.78 µM) | 5.0% | 0.2883 µg/mL (≈ 0.947 µM) | 0.3% | 0.3917 µg/mL | 1.8124 ± 0.0461 µg/mL (≈ 5.95 µM) |  | 73.2 ng/mL |  |  |  |  |  |  |  | 
COP(=O)(OC)OC=C(Cl)Cl [Dichlorvos] | 3.5% | 0.0312 µg/mL | 0.1454 ± 0.0038 µg/mL (≈ 0.658 µM) | 0.8% | 1.8279 µg/mL (≈ 8.27 µM) | 3.5% | 0.024 µg/mL | 0.1321 ± 0.0061 µg/mL (≈ 0.598 µM) | > 100 µg/mL | 437.2 ng/mL |  |  |  |  |  |  |  | 
CNC(=O)CSP(=S)(OC)OC [Dimethoate] | 2.7% |  |  |  |  | 2.7% |  |  |  |  |  | 0.1893 ± 0.0081 µg/mL (≈ 0.826 µM) | 0.0284 µg/mL | < 0.3% | > 5 µg/mL | 0.1703 ± 0.0073 µg/mL (≈ 0.743 µM) | 0.0184 µg/mL | 
CCOP(=S)(Oc1ccc([N+](=O)[O-])cc1)c1ccccc1 (stereo not drawn) [EPN] |  |  |  |  |  |  |  |  | 0.0183 µg/mL (≈ 0.0566 µM) |  |  |  |  |  |  |  |  | 
COP(=S)(OC)Oc1ccc(S(=O)(=O)N(C)C)cc1 [Famphur] | 339.6% | 0.0004 µg/mL | 0.0015 ± 0.0001 µg/mL (≈ 0.00461 µM) | 4.2% | 0.3464 µg/mL (≈ 1.06 µM) | 347.8% | 0.0003 µg/mL | 0.0013 ± 0.0001 µg/mL (≈ 0.004 µM) | 58.2157 µg/mL (≈ 179 µM) | 80.3 ng/mL |  |  |  |  |  |  |  | 
COP(=S)(OC)Oc1cc(Cl)c(Cl)cc1Cl [Fenchlorphos] | 10.1% | 0.0093 µg/mL | 0.0501 ± 0.0021 µg/mL (≈ 0.156 µM) | 26.4% | 0.055 µg/mL (≈ 0.171 µM) | 10.5% | 0.0074 µg/mL | 0.0443 ± 0.0022 µg/mL (≈ 0.138 µM) |  | 13.3 ng/mL |  |  |  |  |  |  |  | 
COP(=S)(OC)Oc1ccc([N+](=O)[O-])c(C)c1 [Fenitrothion] | 104.1% | 0.0012 µg/mL | 0.0049 ± 0.0002 µg/mL (≈ 0.0177 µM) | 180.2% | 0.0081 µg/mL (≈ 0.0292 µM) | 107.1% | 0.0011 µg/mL | 0.0044 ± 0.0003 µg/mL (≈ 0.0159 µM) | 0.0089 µg/mL (≈ 0.0321 µM) | 1.2 ng/mL | 3.54 µg/mL (≈ 12.8 µM) |  |  |  |  |  |  | 0.324 µg/mL (≈ 1.17 µM)
COP(=S)(OC)Oc1ccc([N+](=O)[O-])cc1Cl [Isochlorthion] |  |  |  |  |  |  |  |  | 0.5766 µg/mL (≈ 1.94 µM) |  |  |  |  |  |  |  |  | 
CCOC(=O)CC(SP(=S)(OC)OC)C(=O)OCC (stereo not drawn) [Malathion] |  |  |  |  |  |  |  |  | > 100 µg/mL |  | 10.47 µg/mL (≈ 31.7 µM) |  |  |  |  |  |  | 0.0301 µg/mL (≈ 0.0911 µM)
COc1nn(CSP(=S)(OC)OC)c(=O)s1 [Methidathion] | 157.6% | 0.0006 µg/mL | 0.0032 ± 0.0002 µg/mL (≈ 0.0106 µM) | < 0.3% | > 5 µg/mL | 162.9% | 0.0006 µg/mL | 0.0029 ± 0.0001 µg/mL (≈ 0.00959 µM) |  |  |  |  |  |  |  |  |  | 0.1917 µg/mL (≈ 0.634 µM)
CNC(=O)/C=C(\C)OP(=O)(OC)OC [Monocrotophos] | 2.5% | 0.0616 µg/mL | 0.2014 ± 0.0043 µg/mL (≈ 0.902 µM) | 0.5% | 2.9145 µg/mL (≈ 13.1 µM) | 2.6% | 0.0432 µg/mL | 0.1791 ± 0.0086 µg/mL (≈ 0.803 µM) |  | 594.3 ng/mL |  |  |  |  |  |  |  | 
CCOP(=O)(OCC)Oc1ccc([N+](=O)[O-])cc1 [Paraoxon-ethyl] |  |  |  |  |  |  |  |  | 0.1622 µg/mL (≈ 0.589 µM) |  |  |  |  |  |  |  |  | 
COP(=O)(OC)Oc1ccc([N+](=O)[O-])cc1 [Paraoxon-methyl] | 1.7% | 0.0632 µg/mL | 0.2949 ± 0.0093 µg/mL (≈ 1.19 µM) | 0.5% | 2.6433 µg/mL (≈ 10.7 µM) | 2.0% | 0.0524 µg/mL | 0.231 ± 0.0121 µg/mL (≈ 0.935 µM) | 0.1187 µg/mL (≈ 0.48 µM) | 512.5 ng/mL |  |  |  |  |  |  |  | 
CCOP(=S)(OCC)Oc1ccc([N+](=O)[O-])cc1 [Parathion] | 0.2% | 0.4392 µg/mL | 2.3284 ± 0.0514 µg/mL (≈ 7.99 µM) | 8.9% | 0.1636 µg/mL (≈ 0.562 µM) | 0.2% | 0.4663 µg/mL | 2.4125 ± 0.061 µg/mL (≈ 8.28 µM) | 0.0113 µg/mL (≈ 0.0388 µM) | 17.5 ng/mL |  |  |  |  |  |  |  | > 1 µg/mL
COP(=S)(OC)SCN1C(=O)c2ccccc2C1=O [Phosmet] | 332.9% | 0.0003 µg/mL | 0.0015 ± 0.0001 µg/mL (≈ 0.00473 µM) | < 0.3% | > 5 µg/mL | 323.6% | 0.0003 µg/mL | 0.0014 ± 0.0001 µg/mL (≈ 0.00441 µM) |  |  |  |  |  |  |  |  |  | 0.1597 µg/mL (≈ 0.503 µM)
CCOP(=S)(OCC)O/N=C(\C#N)c1ccccc1 [Phoxim] | 0.2% | 0.4336 µg/mL | 2.5779 ± 0.0721 µg/mL (≈ 8.64 µM) | 5.9% | 0.2441 µg/mL (≈ 0.818 µM) | 0.2% | 0.4354 µg/mL | 2.6524 ± 0.112 µg/mL (≈ 8.89 µM) | > 100 µg/mL | 49.5 ng/mL |  |  |  |  |  |  |  | 
CCN(CC)c1nc(C)cc(OP(=S)(OC)OC)n1 [Pirimiphos-methyl] | 6.0% | 0.0222 µg/mL | 0.0837 ± 0.0038 µg/mL (≈ 0.274 µM) | 23.4% | 0.0621 µg/mL (≈ 0.203 µM) | 6.0% | 0.0156 µg/mL | 0.0774 ± 0.0033 µg/mL (≈ 0.253 µM) |  | 9.1 ng/mL |  |  |  |  |  |  |  | 
CCOP(=S)(OCC)Oc1cnc2ccccc2n1 [Quinalphos] | 0.2% | 0.5318 µg/mL | 3.2266 ± 0.0592 µg/mL (≈ 10.8 µM) | 7.9% | 0.1842 µg/mL (≈ 0.617 µM) | 0.2% | 0.5123 µg/mL | 2.8243 ± 0.0952 µg/mL (≈ 9.47 µM) |  | 32.5 ng/mL |  |  |  |  |  |  |  | 
COP(=O)(OC)O/C(=C\Cl)c1cc(Cl)c(Cl)cc1Cl [Tetrachlorvinphos] | 8.5% | 0.0112 µg/mL | 0.0597 ± 0.0033 µg/mL (≈ 0.163 µM) | 0.6% | 2.4313 µg/mL (≈ 6.64 µM) | 8.6% | 0.0089 µg/mL | 0.0544 ± 0.0021 µg/mL (≈ 0.149 µM) |  | 536.3 ng/mL |  |  |  |  |  |  |  | 
COP(=S)(OC)Oc1c(Cl)cc(C)cc1Cl [Tolclofos-methyl] | 61.3% | 0.0017 µg/mL | 0.0083 ± 0.0004 µg/mL (≈ 0.0276 µM) | 46.2% | 0.0314 µg/mL (≈ 0.104 µM) | 70.2% | 0.0012 µg/mL | 0.0066 ± 0.0003 µg/mL (≈ 0.0219 µM) | > 100 µg/mL | 9.5 ng/mL | 1.1 µg/mL (≈ 3.65 µM) |  |  |  |  |  |  | 
